The structures appear in SMILES notation.

For assay [1], the target named is T1, Phosphodiesterase 4 (Homo sapiens, UniProt P27815+Q08499+Q07343+Q08493). As to the kind of experiment: Affinity for phosphodiesterase (PDE IV) in guinea pig brain membrane using [3H]rolipram displacement. It counts as cell membranes, Cavia porcellus. To be noted: target entry is the homologue from another species.
The target in assay [2] is T1, Phosphodiesterase 4. As to the kind of experiment: In vitro inhibition of phosphodiesterase (PDE IV) from guinea pig macrophages. To be noted: target entry is the homologue from another species. It counts as protein assay, Cavia porcellus.

As to `COc1ccc(C2(Cc3ccncc3)CCN(C(=O)OC(C)(C)C)C2)cc1OC1CCCC1` (stereo unspecified), the Ki (in general, a measure of affinity in units of concentration, obtained from inhibition or displacement) on Phosphodiesterase 4 [1] worked out at 470 nM. Further, at Phosphodiesterase 4 [2], the IC50 (in general, the point on the concentration scale where inhibition reaches its midpoint) was determined as 807 nM.

On to `COc1ccc(C2(Cc3ccncc3)CCN(CCC(C)C)C2=O)cc1OC1CCCC1` (stereo unspecified), for which, at Phosphodiesterase 4 [1], the Ki is 80 nM. Moreover, the IC50 at Phosphodiesterase 4 [2] is reported as 81 nM.

As to `COc1ccc(C2CCNC2=O)cc1OC1CCCC1` (stereo unspecified), at Phosphodiesterase 4 [1], the Ki is on record as above 3745 nM. On Phosphodiesterase 4 [2], this compound showed an IC50 of 5000 nM.

On to `COc1ccc(C2(Cc3ccncc3)CCN(C(C)=O)C2=O)cc1OC1CCCC1` (stereo unspecified), for which the Ki at Phosphodiesterase 4 [1] is 367 nM. In addition, at Phosphodiesterase 4 [2], the IC50 amounted to 461 nM.

In turn, `COc1ccc(C2(Cc3ccncc3)CCN(C(=O)N(C)C)C2=O)cc1OC1CCCC1` (stereo unspecified) came in with a Ki at Phosphodiesterase 4 [1] of 274 nM. The same compound had an IC50 at Phosphodiesterase 4 [2] of 319 nM.

At Phosphodiesterase 4 [1], `COc1ccc(C2(Cc3ccccc3)CCN(C(=O)OC(C)(C)C)C2=O)cc1OC1CCCC1` (stereo unspecified) returned a Ki of 2996 nM. This compound also yielded an IC50 against Phosphodiesterase 4 [2] of 220 nM.

`COc1ccc(C2(Cc3cc[n+]([O-])cc3)CCNC2=O)cc1OC1CCCC1` (stereo unspecified) yielded a Ki at Phosphodiesterase 4 [1] of 2247 nM. Besides, the IC50 against Phosphodiesterase 4 [2] turned out to be 1600 nM.

As to `CCOC(=O)N1CCC(Cc2ccncc2)(c2ccc(OC)c(OC3CCCC3)c2)C1=O` (stereo unspecified), the Ki at Phosphodiesterase 4 [1] came out at 139 nM. In addition, the IC50 on Phosphodiesterase 4 [2] is 137 nM.

`COc1ccc(C2(Cc3ccncc3)CCN(Cc3ccccc3)C2=O)cc1OC1CCCC1` (stereo unspecified) displayed a Ki on Phosphodiesterase 4 [1] of 51 nM. The IC50 at Phosphodiesterase 4 [2] is on record as 56 nM.

Compound `COc1ccc(C2(Cc3ccncc3)CCNC2=O)cc1OC1CCCC1` (stereo unspecified) yielded a Ki on Phosphodiesterase 4 [1] of 210 nM. This compound also yielded an IC50 against Phosphodiesterase 4 [2] of 800 nM.

With `COc1ccc(C2(Cc3ccncc3)CCN(Cc3cccc4ccccc34)C2=O)cc1OC1CCCC1` (stereo unspecified), the Ki at Phosphodiesterase 4 [1] is given as 822 nM. This compound also returned an IC50 at Phosphodiesterase 4 [2] of 293 nM.

At Phosphodiesterase 4 [1], `COc1ccc(C2(Cc3ccncc3)CCN(Cc3ccncc3)C2=O)cc1OC1CCCC1` (stereo unspecified) gave a Ki of 443 nM. Moreover, the IC50 against Phosphodiesterase 4 [2] was 401 nM.

Compound `COc1ccc(C2CCN(C(=O)OC(C)(C)C)C2=O)cc1OC1CCCC1` (stereo unspecified) had a Ki at Phosphodiesterase 4 [1] of 337 nM. Moreover, the IC50 on Phosphodiesterase 4 [2] is given as 700 nM.

Take `COc1ccc(C2(Cc3cc[n+]([O-])cc3)CCN(C(=O)OC(C)(C)C)C2=O)cc1OC1CCCC1` (stereo unspecified): the Ki on Phosphodiesterase 4 [1] turned out to be 217 nM. In addition, at Phosphodiesterase 4 [2], the concentration for half-maximal inhibition (IC50) is reported as 59 nM.

Turning to `COc1ccc(C2(Cc3ccncc3)CCN(C(=O)OC(C)C)C2=O)cc1OC1CCCC1` (stereo unspecified), the Ki at Phosphodiesterase 4 [1] worked out at 113 nM. The same compound displayed an IC50 on Phosphodiesterase 4 [2] of 44 nM.

At Phosphodiesterase 4 [1], `CCCCN1CCC(Cc2ccncc2)(c2ccc(OC)c(OC3CCCC3)c2)C1=O` (stereo unspecified) yielded a Ki of 137 nM. The IC50 on Phosphodiesterase 4 [2] worked out at 123 nM.

For the compound `COc1ccc(C2(CC#N)CCN(C(=O)OC(C)(C)C)C2=O)cc1OC1CCCC1` (stereo unspecified), the Ki at Phosphodiesterase 4 [1] was 476 nM. The compound also registered an IC50 against Phosphodiesterase 4 [2] of 82 nM.

Regarding `COc1ccc(C2(Cc3ccncc3)CCN(C(=O)OC(C)(C)C)C2=O)cc1OC1CCCC1` (stereo unspecified), the Ki on Phosphodiesterase 4 [1] is on record as 7.5 nM. Besides, the IC50 at Phosphodiesterase 4 [2] was 6.3 nM.

For the compound `COc1ccc(C2(Cc3ccncc3)CCN(CC3CCCCC3)C2=O)cc1OC1CCCC1` (stereo unspecified), at Phosphodiesterase 4 [1], the Ki was determined as 43 nM. In addition, on Phosphodiesterase 4 [2], the 50% inhibitory concentration (IC50) worked out at 48 nM.

For the compound `COC(=O)N1CCC(Cc2ccncc2)(c2ccc(OC)c(OC3CCCC3)c2)C1=O` (stereo unspecified), the Ki at Phosphodiesterase 4 [1] is given as 822 nM. At Phosphodiesterase 4 [2], the IC50 is reported as 293 nM.

Compound `COc1ccc(C2(Cc3ccncc3)CCN(S(=O)(=O)c3ccc(C)cc3)C2=O)cc1OC1CCCC1` (stereo unspecified) gave a Ki on Phosphodiesterase 4 [1] of 217 nM. For the same compound, the IC50 at Phosphodiesterase 4 [2] is listed as 61 nM.

As to `COc1ccc(C2(Cc3ccccc3)CCNC2=O)cc1OC1CCCC1` (stereo unspecified), the Ki at Phosphodiesterase 4 [1] turned out to be 787 nM. At Phosphodiesterase 4 [2], this compound came in with an IC50 of 1000 nM.

At Phosphodiesterase 4 [1], `COc1ccc(C2(Cc3ccncc3)CCN(Cc3ccc4ccccc4c3)C2=O)cc1OC1CCCC1` (stereo unspecified) returned a Ki of 4.3 nM. At Phosphodiesterase 4 [2], the IC50 is 17 nM.

(Values after ChEMBL document CHEMBL1130752, “Quaternary substituted PDE IV inhibitors II: the synthesis and in vitro evaluation of a novel series of gamma-lactams” (Bioorg Med Chem Lett, 1998).)
